Measurements: PubChem BioAssay (NCI)
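Step 1: Grow cells in 96-well plates. Step 2: Expose to compound for 48 hours at 5 concentrations. Step 3: Interpolate endpoints linearly; if unreached, use highest concentration. At the GI50, growth is halved. TGI: concentration producing complete growth inhibition.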

Tests used:
Assay in all cases: NCI-60 cell line screen, 48 h
[1] = system: MALME-3M melanoma
[2] = system: OVCAR-4 ovarian
[3] = system: SF-268 CNS
[4] = system: SK-OV-3 ovarian
[5] = system: SF-295 CNS
[6] = system: HT29 colon
[7] = system: HOP-92 NSCLC
[8] = system: HOP-62 NSCLC
[9] = system: ACHN renal
[10] = system: CAKI-1 renal

| Compound | TGI [1] [µM] | TGI [2] [µM] | TGI [3] [µM] | TGI [4] [µM] | TGI [5] [µM] | TGI [6] [µM] | TGI [7] [µM] | TGI [8] [µM] | TGI [9] [µM] | TGI [10] [µM] | GI50 [1] [µM] | GI50 [2] [µM] | GI50 [3] [µM] | GI50 [4] [µM] | GI50 [5] [µM] | GI50 [6] [µM] | GI50 [7] [µM] | GI50 [8] [µM] | GI50 [9] [µM] | GI50 [10] [µM] |
| --- | --- | --- | --- | --- | --- | --- | --- | --- | --- | --- | --- | --- | --- | --- | --- | --- | --- | --- | --- | --- |
| CC(C)(C)NNC(=O)/C(=C/c1ccc(Oc2ccc(Cl)c(Cl)c2)cc1)NC(=O)c1ccccc1 | > 100 | > 100 | > 100 | > 100 | > 100 | > 100 | > 100 | > 100 | > 100 | > 100 |  |  |  |  |  |  |  |  |  |  |
| Nc1c(C(=O)Nc2ccccc2)sc2nc3c(cc12)CCCCCC3 | 19.4 | 15.7 | 20.1 | 3 | 1.69 | 1.43 | 5.1 | 6.97 | 14 | 16 | 1.29 | 1.11 | 1.14 | 0.465 | 0.291 | 0.303 | 0.523 | 0.648 | 0.887 | 0.526 |
| CCC1=C(C)/C(=C/c2[nH]c(C)c(C(=O)CCCCC(=O)OC)c2C)N=C1c1ccc[nH]1 | 45.1 | 17.3 | 47.7 | > 80.6 | 42 | 38.4 | 15.4 | 28.5 | 31.1 | 45.8 | 13.7 | 3.47 | 7.15 | 34.6 | 18.6 | 5.11 | 3.95 | 13.9 | 15.3 | 20.6 |
| CC(=O)Nc1ccc(/C=C(\NC(=O)c2ccccc2)c2nc3ccc4c(c3[nH]2)C(=O)c2ccccc2C4=O)cc1 | > 100 | > 100 | > 100 | > 100 | > 100 | > 100 | > 100 | > 100 |  | > 100 |  |  |  |  |  |  |  |  |  |  |
| COc1ccc(OCC(=O)O)c2c1CCC(C(C)C)C2=O (stereo not given) | > 100 | > 100 |  | > 100 | > 100 | > 100 | > 100 | > 100 | > 100 | > 100 |  |  |  |  |  |  |  |  |  |  |
| Cn1c(C(N)=O)cc2c1-c1nc(Nc3ccccc3)ncc1CCC2 | 57 |  | > 100 | 20.8 | > 100 | 34.7 | 8.32 | 52.6 | 50.5 | 15.9 | 7.63 |  | 5.52 | 3.51 | 4.65 | 10.6 | 1.47 | 2.96 | 3.61 | 2.11 |
| Cc1ccc(NC(=O)c2[nH]c(=S)nc(N)c2-c2ccccc2C)cc1C | > 100 |  | > 100 | > 100 |  | > 100 | > 100 |  | > 100 | > 100 |  |  |  |  |  |  |  |  |  |  |
| O=[N+]([O-])c1cnc(Sc2ccncn2)c([N+](=O)[O-])c1 | 3.61 |  | 30.7 | 31.1 | > 100 | 31.8 | 6.53 | 28.1 | 3.27 | 3.07 | 1.83 |  | 16 | 16.9 | > 100 | 9.75 | 2.51 | 14.6 | 1.77 | 1.6 |
| Cc1ccc(C)c(NC(=O)C(=O)C2C(=O)C3=C(CC2(C)C)Nc2ccccc2S3)c1 (stereo not given) |  | > 100 | > 100 | > 100 | > 100 | > 100 | > 100 | > 100 | > 100 | > 100 |  |  |  |  |  |  |  |  |  |  |
| O=C(/C=C/c1ccco1)c1ccc(Nc2nc(Nc3ccc(F)cc3)nc(Nc3ccc(Cl)cc3)n2)cc1 | > 66.2 | > 88.3 | > 86.4 | > 56.2 |  | > 89.7 | > 45.4 | > 87.1 | > 78.9 | > 54 | 31.9 | 27.1 | 34.8 | 26.6 |  | 15.6 | 2.69 | > 50 | > 45.2 | 19.2 |
| CC(C)(C)[OH+][O-].[O-]c1ccc(Cl)cc1C=Nc1ccc(Cl)cc1[O-].[O]=[V] | 11.9 |  | 69.3 | 46.6 | 33.5 | 67.3 | > 100 | 74.1 | 48 | 52.5 | 1.81 |  | 23.7 | 19.6 | 10.7 | 21.9 | 28.7 | 23.7 | 16.2 | 15.1 |
| CCCCCCCCCCCCN1C(C)=CS/C1=C\C=C\c1scc(C)[n+]1CCCCCCCCCCCC |  | 13.2 | 5.7 | 22.9 | 5.35 |  | 3.77 | 28.7 | 10.4 | 12.8 |  | 1.43 | 1.98 | 2.74 | 1.53 |  | 0.864 | 3.51 | 1.84 | 1.74 |
| COc1cccc(N2C(=O)c3c(c4[nH]c5ccccc5c4c4ccc(C(C)(C)C)cc34)C2=O)c1 | > 100 | > 100 | > 100 | > 100 | > 100 |  | > 100 | > 100 | > 100 | > 100 |  |  |  |  |  |  |  |  |  |  |
| CN(C)CCNC(=O)c1ccc(Nc2nc3ccccc3c3occc23)cc1 |  | > 100 | > 100 | 37.2 | 4.18 | > 100 | 9.84 | 8.16 | 7.56 | 4.95 |  | 26.7 | 63.7 | 19.3 | 1.88 | 6.31 | 1.8 | 3.35 | 2.54 | 2.18 |
| CC1=CC=NN2C(=O)[C@H](C)C2C1 (stereo not given in full) | > 100 | > 100 | > 100 | > 100 | > 100 | > 100 | > 100 | > 100 | > 100 |  |  |  |  |  |  |  |  |  |  |  |
| Cc1ccc(C)c(NC(=O)C(=O)C(c2cnc3ccc([N+](=O)[O-])cc3n2)[N+](=O)[O-])c1 (stereo not given) | > 100 | 38.2 | > 100 | > 100 | > 100 | > 100 | > 100 | > 100 | > 100 |  |  |  |  |  |  |  |  |  |  |  |
| OCCN(CCO)N=Nc1ccc(-c2nc3ccccc3[nH]2)cc1 |  | 36.1 | 40.5 | > 100 | 36 |  | 23.8 | > 100 | > 100 | 60.6 |  | 15.9 | 3.31 | > 100 | 17.4 |  | 3.02 | > 100 | 35.6 | 17 |
| CC1=C(C)C(=O)c2c(c(C(=O)c3ccccc3)c3nc4ccccc4n3c2C)C1=O |  | > 100 | > 100 |  | > 100 | > 100 | 87.3 | 57.3 | > 100 | > 100 |  | > 100 | 28.6 |  | 38.8 | > 100 | 26 | 23.4 | 37.2 | > 100 |
| O=C1NC(=O)C(C(=O)C(=O)Nc2ccc(Br)cc2)C(=O)N1 | > 100 | > 100 | > 100 | > 100 | > 100 | > 100 | > 100 |  | > 100 |  |  |  |  |  |  |  |  |  |  |  |
| O=S(=O)([O-])[O-].[OH3+].[OH3+].[OH3+].[Ru+2].c1ccccc1 | > 100 | > 100 | > 100 | > 100 | > 100 | > 100 | > 100 |  | > 100 |  | > 100 | > 100 | > 100 | > 100 | > 100 | > 100 | > 100 |  | > 100 |  |
| CC(Cn1c2c3ccccc3ccc2c2oc(=O)c3ccccc3c21)N(C)C (stereo not given) | > 100 | > 100 | > 100 |  | > 100 | > 100 | > 100 |  | > 100 | > 100 |  |  |  |  |  |  |  |  |  |  |
| CC(=O)N1CCC2(C=Nc3ccccc32)CC1 | > 100 | > 100 |  | > 100 | > 100 | > 100 | > 100 | > 100 | > 100 | > 100 |  |  |  |  |  |  |  |  |  |  |
| CCn1c(=O)c(-c2ccn[nH]2)cc2c(C)nc(N)nc21 | 1.33 | 44 | > 100 | 3.4 | 3.68 | > 100 | 1.56 | 5.91 | > 100 |  | 0.167 | 1.25 | 1.53 | 0.698 | 0.559 | 1.53 | 0.213 | 0.575 | 1.49 |  |
| CCNc1nnc(CSc2nc(-c3ccccc3)c(-c3ccccc3)[nH]2)s1 | 48.4 | > 100 | 39.3 | 41.7 | 34.1 | 37.9 | 41.9 | 35.7 | 74.6 |  |  |  |  |  |  |  |  |  |  |  |
| Nc1ccccc1C#CC#Cc1ccccc1N | 61.3 | > 100 |  | > 100 | > 100 | > 100 | 96.7 | 29.9 | 22.9 | 18.7 | 35.2 | 23.7 |  | 58 | 2.76 | 20.6 | 1.37 | 15.9 | 10.6 | 1.36 |
